In patent publication US10869851B1, “Targeting NUR77 for mitigating perinatal neuroinflammation” (The United States Government as represented by the …, priority 2017, dated 2020):

Legend:
[1] = tested on: Ikbkb; assay: Intrauterine LPS neuroinflammation model, fetal brain qRT-PCR of Ikbkb; format: in vivo, CD1 mice
Method: (§1) Mice were randomly assigned to six groups: Group 1) 4 pups/PBS+normal saline (NS), Group 2) 4 pups/LPS+NS, Group 3) 4 pups/LPS+MgSO4, Group 4) 4 pups/LPS+BMZ, Group 5) 4 pups/LPS+MgSO4 and BMZ, and Group 6) 4 pups/LPS+TMPA. Except for the non-surgical control (Group 1), each group underwent intrauterine injection of either vehicle or LPS. Phosphate buffered saline (PBS) and normal saline (NS) were used for the control groups. […] Mice received 300 μl of normal saline prior to surgery as a precaution against dehydration. All surgical procedures were performed under anesthesia with isoflurane within a sterile environment using PPE and sterile surgical tools to prevent infection. E15.5 pup brains were compared 6 hours post LPS within the six treatment groups as described in Table 1:
(§2) Mice randomized to Groups 3-5 received a single subcutaneous (SQ) injection of 0.1 mg of MgSO4 and/or BMZ 30 minutes after intrauterine injection of LPS, per the Hallak protocol: 270 mg/kg SQ loading dose followed by 27 mg/kg SQ every 20 minutes for a four-hour duration. […]
(§3) A power analysis was conducted to determine the appropriate number of subjects. Using data, it was determined that a minimum number of pups per treatment group of […] was necessary to obtain statistical power at the 0.80 level.

[2] = tested on: Nos2; assay: Intrauterine LPS neuroinflammation model, fetal brain qRT-PCR of Nos2; format: in vivo, CD1 mice
Method: as §1, §2, §3

[3] = tested on: Ccr2; assay: Intrauterine LPS neuroinflammation model, fetal brain qRT-PCR of Ccr2; format: in vivo, CD1 mice
Method: as §1, §2, §3

[4] = tested on: cerebral palsy; details: meta-analysis [9]; cited from earlier work
[5] = tested on: Nur77 expression; assay: Intrauterine LPS preterm labor/neuroinflammation model, Nur77 expression in fetal brain (microarray, qRT-PCR); set-up: species or system CD1 mice; details: mouse, in vivo
Method: as §1
Mice randomized to Groups 3-5 received a single subcutaneous (SQ) injection of 0.1 mg of MgSO4 and/or BMZ 30 minutes after intrauterine injection of LPS, per the Hallak protocol: 270 mg/kg SQ loading dose followed by 27 mg/kg SQ every 20 minutes for a four-hour duration. Mice randomized to Group 6 received a single dose of 50 mg/kg TMPA (approximately 2 mg of TMPA in 80 μl dimethyl sulfoxide (DMSO)) 30 minutes post-operative, as described by Zhan et al..

[6] = E15.5, 6 hours post LPS, LPS+treatment vs LPS

SMILES | Ikbkb expression in embryonic brain ([1]; mouse, in vivo) | Nos2 expression in embryonic brain ([2]; mouse, in vivo) | Ccr2 expression in embryonic brain ([3]; mouse, in vivo) | women in preterm labor treated per single case of cerebral palsy prevented [4] | Nur77 expression (quantitative reverse-transcriptase PCR validation) [5] | Nur77 expression in fetal brain tissue (microarray) [5] | Ikbkb expression in embryonic brain [1, 6] | Nos2 expression in embryonic brain [2, 6] | Ccr2 expression in embryonic brain [3, 6]
O=S(=O)([O-])[O-].[Mg+2] [MgSO4, magnesium sulfate] | significantly lower | only significantly lower for Ikbkb | only significantly lower for Ikbkb | 46 | reduced | significantly reduced | – | – | –
CCCCCCCC(=O)c1cc(OC)c(OC)c(OC)c1CC(=O)OCC [TMPA, ethyl 2-(2,3,4-trimethoxy-6-octanoylphenyl)acetate] | – | – | – | – | – | – | significantly lower vs. LPS | significantly lower vs. LPS | significantly lower vs. LPS
